17 molecules from PubChem BioAssay AID256 (DTP/NCI, 2004) can be followed below.

Several values for one entry are separate records, joined by “and”; a condition that tells them apart may be missing. Equal entries are not always repeated. Toxic doses and inconclusive results are not listed.

The test relates to CD2F1 mice, L1210 leukemia ip, survival T/C. Nature of the test: NCI In Vivo Anticancer Drug Screen. Data for tumor model L1210 Leukemia (intraperitoneal) in CD2F1 (CDF1) mice. Conditions: higher = longer survival. The essentials: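 Read-out first: treated-group measurement over vehicle-control measurement, expressed as a ratio. Animals bore a transplanted tumor line and were dosed with compound or vehicle.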

Setting [1] is: endpoint: mean survival time, dose: 50.0 mg/kg/injection, schedule: Q01DX009 (ip), vehicle: saline with Tween-80.
The mark [2] stands for this setting: endpoint: mean survival time, dose: 100.0 mg/kg/injection, schedule: Q01DX009 (ip), vehicle: saline with Tween-80.
Where [3] appears, read: endpoint: mean survival time, dose: 200.0 mg/kg/injection, schedule: Q01DX009 (ip), vehicle: saline with Tween-80.
[4] abbreviates: endpoint: mean survival time, dose: 100.0 mg/kg/injection, schedule: Q04DX002 (ip), vehicle: saline with Tween-80.
Setting [5] is: endpoint: mean survival time, dose: 400.0 mg/kg/injection, schedule: Q01DX009 (ip), vehicle: saline with Tween-80.

As for `CCC1(O)CC2CN(CCc3c([nH]c4ccccc34)C(C(=O)OC)(c3cc4c(cc3OC)N(C)C3C(O)(C(N)=O)C(O)C5(CC)C=CCN6CCC43C65)C2)C1` (stereo unspecified) (tested in a mixture with another compound), the T/C reads like this: (endpoint: mean survival time, dose: 0.13 mg/kg/injection, schedule: Q01DX009 (ip), vehicle: water) 121 % of control; (endpoint: mean survival time, dose: 0.22 mg/kg/injection, schedule: Q01DX009 (ip), vehicle: water) 123 % of control; (endpoint: mean survival time, dose: 0.23 mg/kg/injection, schedule: Q04DX003 (ip), vehicle: water) 121 % of control; (endpoint: mean survival time, dose: 0.36 mg/kg/injection, schedule: Q01DX009 (ip), vehicle: water) 122 % of control; (endpoint: mean survival time, dose: 0.39 mg/kg/injection, schedule: Q04DX003 (ip), vehicle: water) 124 % of control; (endpoint: mean survival time, dose: 0.52 mg/kg/injection, schedule: Q04DX003 (ip), vehicle: water) 106 % of control. Also, the T/C runs as follows: (endpoint: mean survival time, dose: 1.44 mg/kg/injection, schedule: Q04DX003 (ip), vehicle: water) 112 % of control; (endpoint: mean survival time, dose: 1.8 mg/kg/injection, schedule: Q04DX003 (ip), vehicle: water) 164 % of control; (endpoint: mean survival time, dose: 4.0 mg/kg/injection, schedule: Q04DX003 (ip), vehicle: water) 104 % of control; (endpoint: mean survival time, dose: 130.0 micrograms/kg/injection, schedule: Q01DX009 (ip), vehicle: water) 102 % of control; (endpoint: mean survival time, dose: 216.0 micrograms/kg/injection, schedule: Q01DX009 (ip), vehicle: water) 107 % of control; (endpoint: mean survival time, dose: 360.0 micrograms/kg/injection, schedule: Q01DX009 (ip), vehicle: water) 113 % of control. Also, the T/C was 120 % of control (endpoint: mean survival time, dose: 600.0 micrograms/kg/injection, schedule: Q01DX009 (ip), vehicle: water) and 122 % of control (endpoint: mean survival time, dose: 1000.0 micrograms/kg/injection, schedule: Q01DX009 (ip), vehicle: water).

For `CCCCN1CCCC(O)C1` (stereo unspecified), the T/C runs as follows: under setting [1], 100 % of control; under setting [2], 100 % of control; under setting [3], 103 % of control.

Take `O=CC(CO)CC(C=O)n1cnc2c(=O)[nH]cnc21` (stereo unspecified): the T/C by setting is: (endpoint: mean survival time, dose: 60.0 mg/kg/injection, schedule: Q01DX009 (ip), vehicle: saline) 123 % of control; (endpoint: mean survival time, dose: 89.0 mg/kg/injection, schedule: Q01DX009 (ip), vehicle: saline) 116 % of control; (endpoint: mean survival time, dose: 300.0 mg/kg/injection, schedule: Q01DX009 (ip), vehicle: saline) 159 % of control; (endpoint: mean survival time, dose: 300.0 mg/kg/injection, schedule: Q04DX003 (ip), vehicle: saline) 150 % of control; (endpoint: median survival time, dose: 37.5 mg/kg/injection, schedule: Q01DX009 (ip), vehicle: saline) 113 % of control and 124 % of control.

For `CC1=COC(Cc2ccc(Cl)cc2)C(c2ccccc2)(c2ccccc2)C1=O` (stereo unspecified), the T/C was 105 % of control (endpoint: mean survival time, dose: 100.0 mg/kg/injection, schedule: Q01DX001 (ip), vehicle: saline sonified); 89 % of control under setting [4]; 94 % of control (endpoint: mean survival time, dose: 200.0 mg/kg/injection, schedule: Q01DX001 (ip), vehicle: saline sonified); 89 % of control (endpoint: mean survival time, dose: 200.0 mg/kg/injection, schedule: Q04DX002 (ip), vehicle: saline with Tween-80); 90 % of control (endpoint: mean survival time, dose: 400.0 mg/kg/injection, schedule: Q01DX001 (ip), vehicle: saline sonified); 89 % of control (endpoint: mean survival time, dose: 400.0 mg/kg/injection, schedule: Q04DX002 (ip), vehicle: saline with Tween-80).

In the case of `O=[N+]([O-])c1ccc(N/N=C(\COc2ccccc2)c2ccccc2)c([N+](=O)[O-])c1`, the T/C (endpoint: mean survival time, dose: 37.5 mg/kg/injection, schedule: Q01DX001 (ip), vehicle: saline with Tween-80) is 98 % of control; the T/C (endpoint: mean survival time, dose: 75.0 mg/kg/injection, schedule: Q01DX001 (ip), vehicle: saline with Tween-80) was 97 % of control; the T/C (endpoint: mean survival time, dose: 150.0 mg/kg/injection, schedule: Q01DX001 (ip), vehicle: saline with Tween-80) is 97 % of control.

As to `CC(=O)C1CCC2C3=CC=C4CC(OC(=O)CCC(C)C)CCC4(C)C3CCC12C` (stereo unspecified), the T/C reads like this: under setting [2], 105 % of control; under setting [3], 97 % of control; under setting [5], 101 % of control.

Regarding `[C-]#[O+].[C-]#[O+].[C-]#[O+].[C-]#[O+].[C-]#[O+].[I][Re]`, where the note is “endpoint: mean survival time, dose: 50.0 mg/kg/injection, schedule: Q04DX002 (ip), vehicle: other”, the T/C was 123 % of control.

Consider `CCOC(=O)/C(Br)=C/SCCN`, for which the T/C was 111 % of control (endpoint: mean survival time, dose: 100.0 mg/kg/injection, schedule: Q01DX001 (ip), vehicle: saline); 105 % of control (endpoint: mean survival time, dose: 200.0 mg/kg/injection, schedule: Q01DX001 (ip), vehicle: saline); 100 % of control (endpoint: mean survival time, dose: 400.0 mg/kg/injection, schedule: Q01DX001 (ip), vehicle: saline).

Consider `CC1=C(c2ccccc2)C(=O)OC1=O`, for which the T/C by setting is: (endpoint: mean survival time, dose: 100.0 mg/kg/injection, schedule: Q04DX002 (ip), vehicle: other) 98 % of control; (endpoint: mean survival time, dose: 200.0 mg/kg/injection, schedule: Q04DX002 (ip), vehicle: other) 103 % of control; (endpoint: mean survival time, dose: 400.0 mg/kg/injection, schedule: Q04DX002 (ip), vehicle: other) 107 % of control.

For the molecule `COc1ccc(C(=O)CCCC(=O)O)cc1`, the T/C under setting [2] was 90 % of control, the T/C under setting [3] is 101 % of control and the T/C under setting [5] was 97 % of control.

With `COc1cccc2c1C(=O)c1c(O)c3c(c(O)c1C2=O)C[C@@](O)(C(=O)COC(C)=O)C[C@@H]3OC1CC(N)C(O)C(C)O1` (stereo partly specified), the T/C (endpoint: mean survival time, dose: 3.0 mg/kg/injection, schedule: Q01DX009 (ip), vehicle: saline) is 156 % of control and the T/C (endpoint: mean survival time, dose: 3.0 mg/kg/injection, schedule: Q04DX003 (ip), vehicle: saline with Tween-80) is 118 % of control.

With `O=C1/C(=C/c2ccccc2)C=C(c2ccccc2)N1Cc1ccccc1`, the T/C by setting is: (endpoint: mean survival time, dose: 25.0 mg/kg/injection, schedule: Q04DX002 (ip), vehicle: saline with Tween-80) 103 % of control; (endpoint: mean survival time, dose: 50.0 mg/kg/injection, schedule: Q04DX002 (ip), vehicle: saline with Tween-80) 100 % of control; under setting [4], 100 % of control.

`CC(C)(C)OC(=O)CCC(NC(=O)OC(C)(C)C)C(=O)O` (stereo unspecified): the T/C (endpoint: mean survival time, dose: 100.0 mg/kg/injection, schedule: Q04DX003 (ip), vehicle: saline with Tween-80) is 98 % of control; the T/C (endpoint: mean survival time, dose: 200.0 mg/kg/injection, schedule: Q04DX003 (ip), vehicle: saline with Tween-80) is 93 % of control; the T/C (endpoint: mean survival time, dose: 400.0 mg/kg/injection, schedule: Q04DX003 (ip), vehicle: saline with Tween-80) was 95 % of control.

`CN1CCc2cc(O)cc3c2C1Cc1ccc(O)c(O)c1-3` (stereo unspecified): the T/C (endpoint: mean survival time, dose: 25.0 mg/kg/injection, schedule: Q04DX003 (ip), vehicle: DMSO) is 101 % of control; the T/C (endpoint: mean survival time, dose: 50.0 mg/kg/injection, schedule: Q04DX003 (ip), vehicle: DMSO) was 101 % of control; the T/C (endpoint: mean survival time, dose: 100.0 mg/kg/injection, schedule: Q04DX003 (ip), vehicle: DMSO) was 101 % of control; the T/C (endpoint: mean survival time, dose: 200.0 mg/kg/injection, schedule: Q04DX003 (ip), vehicle: DMSO) was 102 % of control; the T/C (endpoint: mean survival time, dose: 200.0 mg/kg/injection, schedule: Q04DX003 (ip), vehicle: water) was 105 % of control; the T/C (endpoint: mean survival time, dose: 400.0 mg/kg/injection, schedule: Q04DX003 (ip), vehicle: water) was 102 % of control. Under “endpoint: mean survival time, dose: 600.0 mg/kg/injection, schedule: Q04DX003 (ip), vehicle: water”, the T/C is 102 % of control.

In the case of `COC(=O)Nc1ccccc1OS(=O)(=O)N(C)C`, the T/C (endpoint: mean survival time, dose: 25.0 mg/kg/injection, schedule: Q01DX009 (ip), vehicle: saline with Tween-80) was 95 % of control; the T/C under setting [1] is 104 % of control; the T/C under setting [2] is 96 % of control and 103 % of control.

Take `CCCCc1ccc(-n2c(C)c(COC(=O)NC)c(COC(=O)NC)c2C)cc1`: the T/C reads like this: (endpoint: mean survival time, dose: 1.56 mg/kg/injection, schedule: Q01DX009 (ip), vehicle: Klucel (hydroxypropylcellulose) (HPC)) 113 % of control and 112 % of control; (endpoint: mean survival time, dose: 3.12 mg/kg/injection, schedule: Q01DX009 (ip), vehicle: Klucel (hydroxypropylcellulose) (HPC)) 117 % of control and 110 % of control; (endpoint: mean survival time, dose: 6.25 mg/kg/injection, schedule: Q01DX009 (ip), vehicle: Klucel (hydroxypropylcellulose) (HPC)) 117 % of control and 110 % of control; (endpoint: mean survival time, dose: 12.5 mg/kg/injection, schedule: Q01DX009 (ip), vehicle: Klucel (hydroxypropylcellulose) (HPC)) 124 % of control and 103 % of control; (endpoint: mean survival time, dose: 25.0 mg/kg/injection, schedule: Q01DX009 (ip), vehicle: Klucel (hydroxypropylcellulose) (HPC)) 120 % of control; (endpoint: mean survival time, dose: 50.0 mg/kg/injection, schedule: Q01DX009 (ip), vehicle: Klucel (hydroxypropylcellulose) (HPC)) 122 % of control and 109 % of control.

With `CC(CCC(=O)O)C1CCC2C3CCC4CC(O)CCC4(C)C3CC(O)C12C` (stereo unspecified), the T/C was 104 % of control and 94 % of control (endpoint: mean survival time, dose: 100.0 mg/kg/injection, schedule: Q01DX001 (ip), vehicle: saline with Tween-80); 101 % of control (endpoint: mean survival time, dose: 200.0 mg/kg/injection, schedule: Q01DX001 (ip), vehicle: saline with Tween-80); 92 % of control (endpoint: mean survival time, dose: 400.0 mg/kg/injection, schedule: Q01DX001 (ip), vehicle: saline with Tween-80).
